Source: patent US12461089B2, “Olfactory receptor involved in the perception of musk fragrance and the use thereof” (ChemoSensoryX Biosciences SA, priority 2017, dated 2025)
Residue numbers refer to the chain shown, from its start. Where two headings read alike, the source gives them in different places.

Columns and labels:
Type in all cases: cell-based
OR2A5 = biological target: T1, OR2A5 (Homo sapiens, UniProt Q96R48, A202S/A255T/I126V); assay: Luciferase reporter concentration-response analysis on OR2A5; conditions: CRE-luciferase
T1 construct: expressed in transfected cells; host or cells: HEK293T-RTP1A1/RTP2
T1 sequence (Q96R48 1-311 I126V/A202S/A255T): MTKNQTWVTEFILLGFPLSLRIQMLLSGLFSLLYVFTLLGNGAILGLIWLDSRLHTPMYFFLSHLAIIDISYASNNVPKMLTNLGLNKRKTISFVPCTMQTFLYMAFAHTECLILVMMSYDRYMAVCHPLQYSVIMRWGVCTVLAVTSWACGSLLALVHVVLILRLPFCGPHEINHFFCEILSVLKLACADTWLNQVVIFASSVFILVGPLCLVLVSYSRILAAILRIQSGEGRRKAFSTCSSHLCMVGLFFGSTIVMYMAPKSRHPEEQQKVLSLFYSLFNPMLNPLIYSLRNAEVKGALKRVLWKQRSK
Description: (§1) HEK293T-RTP1A1/RTP2 cells were maintained in minimal essential medium (EMEM, Lonza) containing 10% fetal bovine serum (M10). These cells were generated by transfecting HEK293T with an expression vector containing the sequences of the chaperone proteins RTP1A1 and RTP2 and a resistance gene to puromycin, using Lipofectamine 2000. The recombinant cell population, used in these experiments, was selected by adding 10 μg/ml of puromycin into the culture medium and subsequently subcloned (WO 2014/191047 A1).
(§2) Odorant molecules were diluted at a concentration of 1 mole/liter (M) into dimethyl sulfoxide (DMSO) to generate stock solutions.
(§3) For concentration-response analysis, serial dilutions of the tested molecules were prepared from stock solutions in EMEM plated into 96-well plates.
(§4) For the initial deorphanisation screening and dose-response analysis, a Luciferase-based gene reporter assay (Promega, Leiden, The Nederlands) was used. Briefly, cells were platted on Poly-D-lysine-coated 96-well and transfected with a plasmid containing the CRE-luciferase and a plasmid containing the olfactory receptor. Sixteen hours after transfection, the culture medium was replaced by serum-free EMEM containing the tested compounds at a determined concentration. After four hours of incubation at 37° C. degree, cells were lysed and processed for luminescence measurement. Luminescene emission was recorded. Results were expressed as luciferase activity (Relative […] Unit (RLU)) or as percentage of the response induced by 10 μM of the adenylate cyclase activator Forskolin. An empty plasmid is used as negative control.
In 1998, Krautwurst and collaborators have provided a model system for the study of ligand specificity and structure-function relationships for olfactory receptors (Krautwurst et al., 1998 Cell 95, 917-26). […] Based on their publication, a chimeric OR5A2_variant 1 olfactory receptor was created containing the TM2-TM7 amino acid sequence of OR5A2_variant 1 flanked by the N-teminal and C-terminal sequence of the olfactory receptor OR2A5 (cf. SEQ ID NO: 12). This chimeric OR5A2_variant 1 receptor shared 86 percent identity with the native OR5A2_variant 1 receptor (FIG. 6A and SEQ ID NO: 10).
(§5) To test if the amino acids substitution could impact the musk sensitivity, and specificity and to validate the Krautwurst's model, luciferase assays were performed as described previously after transfection of the chimeric OR5A2_variant 1. Cells were treated with semi-logarithmic serial dilutions of musk compounds from the four structurally different groups described earlier.

OR11A1 = biological target: T2, OR11A1 (Homo sapiens, UniProt Q9GZK7); assay: Luciferase reporter concentration-response analysis on OR11A1; conditions: concentration-response analysis, luciferase reporter; values given as negative (log) numbers; Non Active = no activation after testing; read-out: calculated EC50, OR11A1 (converted)
T2 construct: expressed in transfected cells; host or cells: HEK293T-RTP1A1/RTP2
T2 sequence (Q9GZK7 1-315): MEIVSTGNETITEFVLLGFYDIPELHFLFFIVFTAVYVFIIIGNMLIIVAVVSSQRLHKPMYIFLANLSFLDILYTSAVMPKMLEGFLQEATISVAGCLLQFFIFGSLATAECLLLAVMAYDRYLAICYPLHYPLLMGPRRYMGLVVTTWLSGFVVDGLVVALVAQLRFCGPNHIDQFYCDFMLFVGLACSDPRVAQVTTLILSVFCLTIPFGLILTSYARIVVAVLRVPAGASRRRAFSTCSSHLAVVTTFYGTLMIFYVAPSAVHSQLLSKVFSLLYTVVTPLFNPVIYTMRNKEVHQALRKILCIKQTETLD
Description: (§6) HEK293T-RTP1A1/RTP2 cells were maintained in minimal essential medium (EMEM, Lonza) containing 10% fetal bovine serum (M10). These cells were generated by transfecting HEK293T with an expression vector containing the sequences of the chaperone proteins RTP1A1 and RTP2 and a resistance gene to puromycin, using Lipofectamine 2000.
as §2, §3, §4
(§7) 35 musk compounds from the four structurally different chemical groups previously described were tested in concentration-response analyses (Table 2). In each experiment, an empty vector was used as negative control (pEFIBRHO). […] Full results including the calculated EC50 are given in Table 2; “non active” represent negative experiments, no activation after testing.
These compounds were tested in concentration-response analysis in luciferase assays, as described previously. In each experiment, an empty vector was used as negative control (pEFIBRHO).

OR5A2_variant 2 = biological target: T3, OR5A2_variant 2 (Homo sapiens, UniProt Q8NGI9, P172L); assay: Luciferase reporter concentration-response analysis on haplotype OR5A2_variant 2 (P172L); conditions: CRE-luciferase; empty vector pEFIBRHO as control
T3 construct: (P172L, OR5A2_variant 2); expressed in transfected cells; host or cells: HEK293T-RTP1A1/RTP2
T3 sequence (Q8NGI9 1-324 P172L): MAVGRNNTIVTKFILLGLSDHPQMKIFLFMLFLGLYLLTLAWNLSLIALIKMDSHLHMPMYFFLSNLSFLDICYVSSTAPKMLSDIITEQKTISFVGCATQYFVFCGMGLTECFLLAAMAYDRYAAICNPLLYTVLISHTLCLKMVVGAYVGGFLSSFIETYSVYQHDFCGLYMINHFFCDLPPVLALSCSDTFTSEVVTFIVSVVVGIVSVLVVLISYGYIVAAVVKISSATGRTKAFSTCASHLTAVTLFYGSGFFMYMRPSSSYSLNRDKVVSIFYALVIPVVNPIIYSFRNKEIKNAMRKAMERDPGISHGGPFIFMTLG
Description: as §6, §2, §3, §4
OR genes are highly variable, with many alleles resulting in differences in smell perception from person to person. These differences can be attributed to genetic variations like, for example, nucleotide polymorphisms. […] Amino acids alignment of the 2 haplotypes are represented in FIG. 4.
To test if the substitution could impact the musk sensitivity, luciferase assays were performed as described previously after transfection of both OR5A2 variants. Cells were treated with semi-logarithmic serial dilutions of musk compounds from the four structurally different groups described earlier. In each experiment, an empty vector was used as negative control (pEFIBRHO).

chimeric OR5A2_variant 1 = biological target: T4, chimeric OR5A2_variant 1 (Homo sapiens, UniProt Q8NGI9, F293L/H55R/I289L/M58T); assay: Luciferase reporter concentration-response analysis on chimeric OR5A2_variant 1; conditions: CRE-luciferase; empty vector pEFIBRHO as control
T4 construct: expressed in transfected cells; host or cells: HEK293T-RTP1A1/RTP2
T4 sequence (Q8NGI9 with tags, fused parts or gaps H55R/M58T/I289L/F293L): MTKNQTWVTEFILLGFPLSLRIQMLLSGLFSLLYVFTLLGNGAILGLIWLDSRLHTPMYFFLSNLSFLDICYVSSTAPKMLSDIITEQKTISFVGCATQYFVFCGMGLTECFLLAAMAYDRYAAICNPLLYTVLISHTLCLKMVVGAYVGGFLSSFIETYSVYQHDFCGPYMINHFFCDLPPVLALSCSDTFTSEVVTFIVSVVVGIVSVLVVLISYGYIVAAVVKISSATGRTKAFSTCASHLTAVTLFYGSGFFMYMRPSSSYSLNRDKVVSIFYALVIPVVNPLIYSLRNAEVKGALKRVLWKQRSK
Description: as §6, §2, §3, §4, §5
In each experiment, an empty vector was used as negative control (pEFIBRHO).

OR5A2_variant 1 [1] = biological target: T5, OR5A2_variant 1 (Homo sapiens, UniProt Q8NGI9); assay: Luciferase reporter concentration-response analysis on OR5A2_variant 1; conditions: for activation of OR5A2 (OR5A2_variant 1), concentration-response: CRE-luciferase, semi-logarithmic serial dilutions, empty vector pEFIBRHO as control
T5 construct: expressed in transfected cells; host or cells: HEK293T-RTP1A1/RTP2
T5 sequence (Q8NGI9 1-324): T3 sequence (Q8NGI9 1-324 P172L) with L172P
Description: as §6, §2, §3, §4, §7

OR5A2_variant 1 [2] = biological target: T5, OR5A2_variant 1; assay: Luciferase reporter deorphanisation screening of odorant libraries (891 compounds) on OR5A2; conditions: HEK293T-RTP1A1/RTP2 cells; each compound at 1 mM, 316 μM, 100 μM; hit = luciferase activity >= median + 2 standard deviations
Description: as §6, §2
For screening experiments, stock solutions of odorant molecules were diluted in EMEM disposed in 96-well plates.
as §4

OR5AN1 = biological target: T6, OR5AN1 (Homo sapiens, UniProt Q8NGI8, E89G); assay: Luciferase reporter concentration-response analysis on OR5AN1; conditions: concentration-response analysis, luciferase reporter; values given as negative (log) numbers; Non Active = no activation after testing; read-out: calculated EC50, OR5AN1 (converted)
T6 construct: expressed in transfected cells; host or cells: HEK293T-RTP1A1/RTP2
T6 sequence (Q8NGI8 1-311 E89G): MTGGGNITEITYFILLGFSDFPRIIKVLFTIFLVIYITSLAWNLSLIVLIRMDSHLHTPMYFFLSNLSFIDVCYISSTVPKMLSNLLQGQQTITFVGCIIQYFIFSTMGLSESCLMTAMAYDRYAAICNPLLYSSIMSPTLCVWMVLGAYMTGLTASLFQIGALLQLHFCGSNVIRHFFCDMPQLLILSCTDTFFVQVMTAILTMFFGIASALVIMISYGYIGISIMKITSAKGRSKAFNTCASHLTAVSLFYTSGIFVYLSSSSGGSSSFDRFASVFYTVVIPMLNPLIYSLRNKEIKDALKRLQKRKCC
Description: as §1, §2, §3, §4
In these analyses we also included ORs previously described as musk-specific receptors OR5AN1 (SEQ ID n° 7) (WO 2015/020158 A1, Shirasu et al. 2014 Neuron 81, 165-78, Sato-Akuhara N et al. 2016 J Neurosci. 36(16), 4482-91) and OR11A1 (SEQ ID n° 8) (WO 2016/201152 A1). […] Therefore, OR5A1 was included in the analyses. 35 musk compounds from the four structurally different chemical groups previously described were tested in concentration-response analyses (Table 2). In each experiment, an empty vector was used as negative control (pEFIBRHO). […] Full results including the calculated EC50 are given in Table 2; “non active” represent negative experiments, no activation after testing. […]

[3] = concentration-response analysis, luciferase reporter, values given as negative (log) numbers, read-out: calculated EC50, OR5A2 (converted)

In the case of `CC1C(C)(C)C2=C(C(=O)CCC2)C1(C)C` (centres unmarked) [Cashmeran], the “activation of OR2A5, concentration-response” value (shortened to “activation of OR2A5”) (OR2A5) is reported as “but not the OR2A5”, the EC50 (OR11A1) is reported as 21.4 µM and the “activation of OR5A2_variant 2 (P172L), concentration-response” value (“activation of OR5A2_variant 2 (P172L)” for short) (OR5A2_variant 2) is reported as “not activated”. For the same compound, the “activation of chimeric OR5A2_variant 1, concentration-response” value (chimeric OR5A2_variant 1) was “shows dose response curves”, the “activation of OR5A2 (OR5A2_variant 1), concentration-response” value (OR5A2_variant 1 [1]) was “shows dose response curves” and the EC50 (OR5A2_variant 1 [1]; [3]) was 17.8 µM.
For `O=C1CCCCCCCCCCCC(=O)OCCO1` [Ethylene Brassylate], the “response of the OR of the invention (luciferase activity, hit) in library screening” value (from here on “response of the OR of the invention”) (OR5A2_variant 1 [2]) was “respond specifically and exclusively”, the EC50 (OR5AN1) was 66.1 µM and the EC50 (OR5A2_variant 1 [1]; [3]) was 49 µM.
In the case of `CC1COCc2cc3c(cc21)C(C)(C)C(C)C3(C)C` (centres unmarked) [Galaxolide®], the “activation of OR2A5” value (OR2A5) is reported as “but not the OR2A5”, the “activation of OR5A2_variant 2 (P172L)” value (OR5A2_variant 2) is reported as “not activated” and the “activation of chimeric OR5A2_variant 1, concentration-response” value (chimeric OR5A2_variant 1) is reported as “shows dose response curves”. The “activation of OR5A2 (OR5A2_variant 1), concentration-response” value (OR5A2_variant 1 [1]) was “shows dose response curves”.
In the case of `CC(OC(C)(C)COC(=O)C1CC1)C1CCCC(C)(C)C1` (centres unmarked) [Serenolide], the “activation of OR2A5” value (OR2A5) is reported as “but not the OR2A5”, the “response of the OR of the invention” value (OR5A2_variant 1 [2]) is reported as “respond specifically and exclusively” and the “activation of OR5A2_variant 2 (P172L)” value (OR5A2_variant 2) is reported as “not activated”. The “activation of chimeric OR5A2_variant 1, concentration-response” value (chimeric OR5A2_variant 1) was “shows dose response curves”, the EC50 (OR5A2_variant 1 [1]) was 21.9 µM and the “activation of OR5A2 (OR5A2_variant 1), concentration-response” value (OR5A2_variant 1 [1]) was “shows dose response curves”.
For `C[C@H]1CC(C)(C)C2=C(C[C@@]3(C)O[C@H]3C2)C1(C)C` [malaxone], the “response of the OR of the invention” value (OR5A2_variant 1 [2]) was “respond specifically and exclusively”.
